Experimental data from patent US7601687B2, “Mechanism for identifying drugs for the treatment of type II diabetes” (BioCrine AB, priority 2006, dated 2009).

Columns and labels:
[1] = system: rat insulin-I gene promoter; experiment: On-line monitoring of insulin promoter-driven DsRed/GFP expression (prIns1.DsRed) in transfected HIT-T15 cells and islet cells; assay type: cell-based, hamster (HIT-T15), rat (islet cells); settings: for effect of inhibitor on insulin-stimulated insulin gene transcription / insulin promoter activity: 25 μM LY294002, 10 nM rapamycin, 400 nM AC, 100 μM HNMPA-(AM)3
Source text: Construction of prIns1.GFP has been described earlier (Leibiger et al., 1998a). Vector prIns1.DsRed was generated by exchanging the EGFP-expression cassette versus the DsRed-expression cassette obtained from pDsRed1-1 (Clontech). Plasmid prβGK.GFP (i.e. prβGK-278.GFP) was generated by exchanging the CAT-SV40pA-expression cassette of prβGK-278.CAT (Leibiger et al., 1994a) versus the EGFP-bGHpA-expression cassette obtained from pRcCMVI.GFP (Moede et al., 1999). […] All vector constructions were verified by DNA sequence analysis. Constructs for expression of the human Insulin Receptor A and B types, pCMVHIR(A) and pCMVHIR(B) and the control plasmid pCMVstop were kindly provided by Dr. A. Ullrich (Max-Planck-Institute for Biochemistry, Martinsried, Germany). Expression constructs pCMV5.PKBα, pCMV5.PKBαΔ308/437, pCMV5.PDK1 and pCMV5.PDK1-antisense were kindly provided by Drs. P. Cohen and D. R. Alessi (MRC Phosphorylation Unit, University of Dundee, UK).
Insulin-producing HIT-T15 cells were obtained from ATCC. HIT cells were reported to show glucose responsiveness at subphysiological concentrations between 0.1 and 2 mM (Sharma et al., 1995). HIT cells were grown in RPMI 1640 medium supplemented with 100 units/ml penicillin, 100 μg/ml streptomycin, 2 mM glutamine and 10% fetal calf serum at 5% CO2 and 37° C. Pancreatic islets were isolated from normally fed male Wistar rats and from mice by collagenase digestion. Isolated islets were incubated overnight at 5% CO2 and 37° C. in RPMI 1640 medium, supplemented as described above. Transfection of HIT-T15 and islet cells was performed overnight by the lipofectamine technique in RPMI 1640 medium, without serum and antibiotics. For on-line monitoring, cells were grown and transfected on 24-mm glass coverslips. Following transfection, HIT cells were cultured for 12-18 h in RPMI 1640 medium containing 0.1 mM glucose, 10% fetal calf serum and supplemented as above. Before stimulation, islets and islet cells were incubated for 2 h in RPMI 1640 medium, supplemented as above but containing 3 mM glucose. All expression constructs were prepared using the Qiagen Plasmid Maxi Kit (Qiagen), except those used to produce the adenoviruses which where purified by ultracentrifugation via a CsCI-gradient (as described in Sambrook et al, 1989).
All experiments were performed in RPMI 1640 medium, supplemented as above. Protein kinase inhibitors, antibodies or nifedipine were added to the culture medium 30 min prior to stimulation and were kept in the medium throughout stimulation. After stimulation islets, islet cells and HIT cells were cultured further at substimulatory glucose concentrations (0.1 mM for HIT cells and 3 mM for islets and islet cells). For RNA-analysis, islets and cells were harvested 60 min after start of stimulation, if not indicated otherwise. For analysis of protein kinase activities or tyrosine phosphorylation, cells were harvested immediately following stimulation.
(§1) Detection of fluorescence by digital imaging fluorescence microscopy was performed as described previously (Leibiger et al., 1998a; Leibiger et al., 1998b). Briefly, transfected cells were grown on 24-mm glass coverslips. After stimulation the coverslips were placed into a perifusion chamber which was mounted on an inverted microscope (Zeiss Axiovert 135TV). Temperature was kept at 37° C. and the cells were perfused with RPMI 1640 medium. The objective lens used was a Zeiss-Fluar ×40/1.30 oil Imm Korr. Fluorescence imaging was performed with a cooled charged-coupled device camera (CH250 with KAF 1400, Photometrics, Tucson, Ariz.) connected to an imaging system (Inovision) with fluorescence excitation from a SPEX fluorolog-2 CM1T11I spectrofluorometer (Spex Industries). The following filter-settings were used: for GFPs65T: excitation at 485 nm, a 505 nm dicroic mirror and an emission band-pass filter of 500-530 nm; for DsRed: excitation at 558 nm, a 565 nm dicroic mirror and a 580 nm long-pass filter for emission […]

rat insulin-I promoter = experiment: Insulin promoter-driven DsRed expression in co-transfected human islet cells; assay type: cell-based
Description: Data are presented as the ratio of fluorescence obtained at minutes 240 and 60 and represent mean values ±S.E. (n=11).
as §1, with “Industries).” for “Industries). The following filter-settings were used: for GFPs65T: excitation at 485 nm, a 505 nm dicroic mirror and an emission band-pass filter of 500-530 nm; for DsRed: excitation at 558 nm, a 565 nm dicroic mirror and a 580 nm long-pass filter for emission”
On-line monitoring was initiated 60 min following the start of stimulation and the 60-min value of GFP- or DsRed-fluorescence was set to 1.0. Cells to be monitored were chosen randomly at minute 60 from six fields of vision and fluorescence was monitored up to minute 240. By overlaying the fluorescence and phase-contrast images, the position of cells on the coverslip could be checked. Fluorescence intensity was calculated by using the ISee-software for UNIX (Inovision Corporation).

Compound	effect of inhibitor on insulin-stimulated insulin gene transcription / insulin promoter activity ([1]; 5 mU/ml insulin)	effect of inhibitor on insulin-stimulated insulin gene expression (rat insulin-I promoter; 400 nM AC, 10 nM rapamycin, low concentrations: 50 nM wortmannin, 25 μM LY 294002 (FIG. 15))	insulin promoter-driven DsRed fluorescence upon insulin stimulation ([1]; 5 mU/ml insulin, co-transfected cells)	amount of exogenous insulin necessary to trigger insulin gene promoter activity ([1]; transfected HIT-T15 cells, supplemented culture medium (FIG. 4B))	insulin promoter-driven DsRed expression upon insulin stimulation (rat insulin-I promoter; 5 mU/ml insulin for 5 min, sub-stimulatory glucose)
CC(=O)OCOC(c1ccc2ccccc2c1)P(=O)(OCOC(C)=O)OCOC(C)=O (stereo not drawn) [HNMPA-(AM)3]	abolished	–	–	–	–
autocamtide-2 related inhibitory peptide	abolished	sensitive	–	–	–
insulin	–	–	elevation	5-10 μU insulin per ml	up-regulation
